Results from patent publication US20260232699A1, “COMPOSITIONS OF A CANNABINOID AND A KINASE INHIBITOR FOR THE TREATMENT OF CANCER” (SINOVEDA CANADA INC., priority 2023, published 2026).
In brackets after ≈: the same amount, converted by molar mass.

Assays:
[1] = cited from earlier work
HepG2 cells [2] = assay: rtPCR gene expression analysis (TaqMan array card); type: cell-based, human
Experimental: Target cancer gene pathways were analyzed using a custom Taqman® array card exploring 90 unique genes associated with cancer related pathways (Kanehisa, Goto et al. 2010).
Two million HepG2 cells in IMDM media with 20% FBS, and 1% ethanol were seeded in T75 flasks and incubated at 37° C., 7.5% CO2 until 70-80% confluent (approx. […]). […] Untreated cells were included as a negative control. Glyceraldehyde-3-phosphate dehydrogenase (GAPDH) was included as an endogenous control and used for normalization of the data.
Following a 6-hour incubation with the test compounds, the RNA was extracted using Invitrogen's Dynabead mRNA DIRECT kit using the recommended protocol to provide 50 μL of a purified mRNA solution. Fifty μL of RT master mix was mixed into the mRNA solution and the mixture left to react at 37° C. for 60 minutes. Reverse transcriptase inactivation was performed at 95° C. for 5 minutes and the resulting cDNA samples were kept at 4° C. until use. Fifty-five microliters of TaqMan Fast Advance master mix were added to an equal amount of cDNA sample containing 1 μg/100 μl of cDNA, which was loaded into each card reservoir. The cards were centrifuged twice at 1200 RPM for 3 minutes in a Legend XFR centrifuge and the rtPCR reaction was conducted in a QuantStudio7 PCR instrument using the recommended settings with 40 amplification cycles. Data processing was done using ThermoFisher's Connect™ application.

HepG2 cells [3] = assay: HepG2 cell proliferation assay (XTT); type: cell-based, human; settings: IMDM media with 20% FBS and 1% ethanol, read-out: predetermined IC50 concentrations
Experimental: HepG2 cells were obtained from the American Type Culture Collection (ATCC). Normal hepatocyte pool of cells was acquired from Xenotech. Cryopreserved cells in DMEM containing 5% DMSO were thawed and diluted 10-fold in phenol red free DMEM media containing 10% fetal bovine serum, 100 μg/ml penicillin/streptomycin, supplemented with Glutamax™ and sodium pyruvate. Subsequently, cells were centrifuged at 20 g for 10 minutes. The cells were resuspended in the same media with added Revitacell® to a concentration of […]. Ninety-six well cell culture treated flat bottom plates were seeded with 7.5×10^3 cells in 100 μl and incubated at 37° C., 7.5% CO2, >95% relative humidity for 18 hours to allow cellular adhesion after which media was replaced with like media (DMEM, IMDM, Williams E) containing 1 to 20% FBS and various test compounds (10 μg/ml to 100 ng/ml). After 48 hours (2 doublings of cells), sodium; 2-(2-methoxy-4-nitro-5-sulfonatophenyl)-3-(2-methoxy-4-nitro-5-sulfophenyl)-N-phenyltetrazol-3-ium-5-carboximidate (XTT) (300 μg/ml) was added, and cells incubated for 2 hours. Formazan production was measured at 450 nm on a Varioskan lux spectrophotometer. Non-specific absorption was measured at 660 nm and subtracted from the reference measurement at 450 nm. Experiments were performed in triplicates (n=3). […]
The objectives of this example are to, first, establish the procedure of a two-component interaction study; and second, establish a method of analysis to identify potential interactions among the two components/compounds. […] Following 48 hours of incubation, the IC50 values of various mixtures were obtained and compared with the pure compound's IC50 values and predicted/calculated IC50 values for the various mixtures. […]
Samples from the serial dilutions were analyzed by LC-MS/MS to orthogonally confirm concentrations. […]
To assess potential interactions, the IC50 values for individual cannabinoids in the control lanes were calculated and used to predict and IC50 value for the summation of their individual components.

PDX tumor model (575) = assay: In vivo PDX model with drug-loaded nanonails; design: species or system NCG mice; settings: intra-tumoral nanonail, 72 hours
Experimental: Drug candidates were mixed with FITC-labeled PEG-5000 with a milligram ratio of 2:8 in a suitable solvent and lyophilized to dryness. Samples of the resultant mixtures (10 mg) were loaded into nanonails (Kibur Medical Inc.), a device invented to test multiple samples in a single tumor. The dimension of the cylindrical device is 4 mm×820 μm containing 18 reservoirs 200 μm wide and 250 μm deep. The loaded devices were kept at −80° C. until tumor implant. NCG mice (female, 8-12 weeks old) from Charles River were injected subcutaneously with 100 μL of LIXF-575 cells per mouse. The body weight of the mice and caliper measurements of the tumors were performed every 3 days until the tumors reached 300-400 mm^3 (about 12 weeks). Nine mice were used for intra-tumoral implantation. […]

[4] = Cell Cycle, 6 h at IC50 concentration, relative to negative control
[5] = MAP kinase, 6 h at IC50 concentration, relative to negative control
[6] = PI3K pathway, 6 h at IC50 concentration, relative to negative control

C=C(C)[C@@H]1CCC(C)=C[C@H]1c1c(O)cc(CCCCC)c(C(=O)O)c1O [CBDA, cannabidiolic acid]
times more water soluble compared to CBD ([1]; CBDA versus its decarboxylated counterpart): about 25,000 times | water solubility [1]: 17.5 mg/mL (≈ 48.8 mM)

CCCCCc1cc2c(c(O)c1C(=O)O)-c1cc(C)ccc1C(C)(C)O2 [CBNA, cannabinolic acid]
ΔΔCt VEGFA (HepG2 cells [2]; Angiogenesis, 6 h at IC50 concentration, relative to negative control): −2.861 | ΔΔCt BAX (HepG2 cells [2]; [4]): −1.062 | ΔΔCt BECN1 (HepG2 cells [2]; [4]): −1.7 | ΔΔCt CCND2 (HepG2 cells [2]; [4]): −1.539 | ΔΔCt CCNE1 (HepG2 cells [2]; [4]): −2.445 | ΔΔCt CDK1 (HepG2 cells [2]; [4]): 1.051 | ΔΔCt CDK2 (HepG2 cells [2]; [4]): 1.102 | ΔΔCt MNT (HepG2 cells [2]; [4]): −1.868 | ΔΔCt MITF (HepG2 cells [2]; Drug Resistance, 6 h at IC50 concentration, relative to negative control): −2.367 | downregulation of the ERBB2/HER2 receptor (HepG2 cells [2]; HepG2, 6 hour timeframe): 8 fold | ΔΔCt ERBB2 (HepG2 cells [2]; [5]): 3.097 | ΔΔCt MAP1LC3A (HepG2 cells [2]; [5]): −1.26 | ΔΔCt MAP2K2 (HepG2 cells [2]; [5]): −1.607 | ΔΔCt RASA1 (HepG2 cells [2]; [5]): −1.904 | ΔΔCt PIK3CA (HepG2 cells [2]; [6]): −1.639 | ΔΔCt PTEN (HepG2 cells [2]; [6]): −1.446 | ΔΔCt SMAD3 (HepG2 cells [2]; TGF signaling, 6 h at IC50 concentration, relative to negative control): 2.577 | IC50 (HepG2 cells [3]): 20 µM | cell proliferation (Ki67) in nanonail implanted 575 PDX tumors (PDX tumor model (575)): not significantly affected
